Assay results taken from patent US20260083676A1, “SPRAY-DRIED AMORPHOUS SOLID DISPERSIONS AND METHOD FOR PREPARATION” (Merck Patent GMbH, priority 2022, published 2026).

Tests used:
[1] = X-ray powder diffraction and DSC of spray-dried products; format: physicochemical; settings: raw material and spray dried dispersion with PVA 3-82; FIG. 24 to 26
Protocol: (§1) Diffractograms of powders were measured using an Miniflex 600 X-ray diffractometer (Rigaku, Japan) with CuKα radiation (λ=1.54 A). Samples were scanned in reflectance mode from 3° to 50° 2θ (deg), with a scan speed of 10° 2θ (deg)/min and a step size of 0.020° 2θ (deg) and results are shown in FIG. 2. The acceleration voltage and current are 45 kV and 15 mA.
The DSC thermograms of the samples as shown in FIG. 3 were collected using a DSC 3 (METTLER, U.S.) under a nitrogen gas flow of 50 ml/min. A total of 2-5 mg sample powder was filled into an aluminum Tzero pan (40 μL) and sealed with an aluminum Tzero lid. The sample was analyzed at a heating rate of 5° C./min from −25° C. to 230° C.
Spray-drying of ASDs has been prepared as described in Example 2, XRD measurements have been performed as described in Example 1.
as §1, with “(deg).” for “(deg) and results are shown in FIG. 2.”

[2] = Dissolution measurement of PROTAC ARV-110 ASD in phosphate buffer pH 6.8; format: physicochemical; settings: phosphate buffer pH 6.8, room temperature, 0.2 mg/ml, 120 minutes; FIG. 23
Protocol: For PROTAC ARV-110, the dissolution of the samples was determined at room temperature in phosphate buffer pH 6.8 as dissolution medium. 5 mg of bulk drug or spray dried powder samples equivalent to 5 mg of drug were weighted and placed into a 100 ml of Erlenmeyer flask, subsequently a magnetic stirring bar was added to the Erlenmeyer flask and stirred at 200 rpm, then 25 ml of dissolution medium was added. (concentration: 0.2 mg/ml)
At predetermined time points (5, 10, 20, 40, 60, 90, 120 min), 500 μl of sample were withdrawn from the dissolution vessels and immediately replaced by 500 μl of fresh dissolution medium. The dissolution samples were then filtered through a 0.45 μm filter. The sample is diluted with Eluent B (1:1). Finally, the samples were analyzed towards drug content using HPLC.
A C8-Column (Waters XBridge Column C8, 4.6×50 mm, 3.5 μm) column was used for the quantification.
The eluents are composed as follows: Eluent A: 0.1% formic acid in water; Eluent B: 0.1% formic acid in acetonitrile. Method: linear gradient of 10% to 90% Eluent B in 2 minutes at 1.7 ml/min flow rate.

N#Cc1ccc(O[C@H]2CC[C@H](NC(=O)c3ccc(N4CCC(CN5CCN(c6cc7c(cc6F)C(=O)N(C6CCC(=O)NC6=O)C7=O)CC5)CC4)nn3)CC2)cc1Cl (some centres unmarked) [ARV-110]
solid state (XRD) [1]: crystalline
dissolution [2]: neither the raw PROTAC 1, PROTAC 2 nor ARV110 show any measurable dissolution
